Legend:
[1] = Selectivity index, ratio of Ki for human G6PD to Ki for Plasmodium falciparum GluPho
[2] = Binding affinity to Plasmodium falciparum GluPho
[3] = Inhibition of Plasmodium falciparum recombinant GluPho measured for 20 to 30 mins by multiwell plate reader method
[4] = target: T1, Glucose-6-phosphate 1-dehydrogenase (Homo sapiens, UniProt P11413); assay: Binding affinity to human G6PD
[5] = Inhibition of Trypanosoma cruzi G6PD expressed in Escherichia coli BL21 (DE3) by G6PDH-diaphorase-resorufin coupled assay
[6] = Inhibition of Trypanosoma cruzi G6PD
[7] = target: T1, Glucose-6-phosphate 1-dehydrogenase; assay: Binding affinity to G6PD (unknown origin) assessed as Gibbs free energy
[8] = target: T1, Glucose-6-phosphate 1-dehydrogenase; assay: Inhibition of human C-terminal His tagged G6PD overexpressed in Escherichia coli BL21
[9] = Antiproliferative activity against human MCF10AT1 cells; type: functional, cell-based
Plasmodium falciparum = assay: Antimalarial activity against Plasmodium falciparum 3D7 incubated for 48 hrs followed by [3H]-hypoxanthine addition measured after 24 hrs by microdilution method; type: functional, organism-based
[10] = target: T1, Glucose-6-phosphate 1-dehydrogenase; assay: Inhibition of human G6PD
Trypanosoma cruzi = assay: Trypanocidal activity against Trypanosoma cruzi assessed as lethal dose; type: functional; conditions: read-out: LD50 (the source's name)
[11] = Inhibition of Plasmodium vivax G6PD
[12] = Inhibition of Plasmodium falciparum GluPho

T1 sequence (P11413 whole entry): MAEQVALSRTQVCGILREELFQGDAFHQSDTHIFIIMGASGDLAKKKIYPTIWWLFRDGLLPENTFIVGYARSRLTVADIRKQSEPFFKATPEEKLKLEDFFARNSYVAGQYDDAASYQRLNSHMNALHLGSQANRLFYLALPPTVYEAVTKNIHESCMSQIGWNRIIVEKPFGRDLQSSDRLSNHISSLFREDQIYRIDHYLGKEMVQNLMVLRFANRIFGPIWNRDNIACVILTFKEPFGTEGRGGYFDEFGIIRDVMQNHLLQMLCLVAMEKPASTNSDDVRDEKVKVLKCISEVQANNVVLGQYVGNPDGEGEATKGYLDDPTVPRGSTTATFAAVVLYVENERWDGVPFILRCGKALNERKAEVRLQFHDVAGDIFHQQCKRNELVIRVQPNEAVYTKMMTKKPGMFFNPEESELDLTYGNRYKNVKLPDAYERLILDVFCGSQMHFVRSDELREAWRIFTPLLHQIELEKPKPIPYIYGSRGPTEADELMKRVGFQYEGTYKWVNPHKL

**Q.** Which results are given for `CO[C@H]1O[C@H](CS(=O)(=O)CCCN)[C@@H](O)[C@H](O)[C@H]1O`?
**A.** Ratio Ki [1]: 1; Ki [2]: 34.4 µM

**Q.** Which IC50 [3] does the source give for `O=C1NC(=O)N(c2ccc(O)cc2)C(=O)/C1=C\c1ccc(-c2ccccc2[N+](=O)[O-])o1` here?
**A.** The IC50 was 19.9 µM.

**Q.** Which Ratio Ki [1] does the source give for `CO[C@H]1O[C@H](CS(=O)(=O)CCCNC(=N)N)[C@@H](O)[C@H](O)[C@H]1O` here?
**A.** The Ratio Ki was 0.5.

**Q.** What about the Ki [2] of the same compound?
**A.** Its Ki is 42.9 µM.

**Q.** Which Ratio Ki [1] does the source give for `CO[C@H]1O[C@H](CSCCNC(=N)N)[C@@H](O)[C@H](O)[C@H]1O` here?
**A.** The Ratio Ki was over 4.4.

**Q.** And the Ki [2]?
**A.** Its Ki is 45.6 µM.

**Q.** With `CO[C@H]1O[C@H](CSCCC#N)[C@@H](O)[C@H](O)[C@H]1O` as the compound, how does the Ratio Ki [1] read?
**A.** The Ratio Ki was over 0.8.

**Q.** And the Ki [2]?
**A.** Its Ki is 259 µM.

**Q.** Which Ratio Ki [1] does the source give for `CO[C@H]1O[C@H](CS(=O)(=O)CCNC(=N)N)[C@@H](O)[C@H](O)[C@H]1O` here?
**A.** The Ratio Ki was 0.5.

**Q.** And the Ki [2]?
**A.** The Ki was 32.4 µM.

**Q.** And the Ki [4]?
**A.** The Ki was 16.8 µM.

**Q.** What does the source list for `Cc1ccc(Nc2ncc3c(n2)CCCC3=O)cc1`?
**A.** IC50 [5]: 0.48 µM; IC50 [6]: 10 µM

**Q.** With `O=C(Nc1ccc(Cl)cc1)Nc1ncc([N+](=O)[O-])s1` as the compound, how does the deltaG [7] read?
**A.** The deltaG was -6.91 kcal/mol.

**Q.** Which results are given for `Cc1ccc(C)c(S(=O)(=O)Nc2ccc(O)c3ccccc23)c1`?
**A.** IC50 [8]: 0.2 µM; IC50 [3]: 22 µM; IC50 [9]: 25 µM; IC50 (Plasmodium falciparum): 5.3 µM

**Q.** With `COc1ccc(N2CCN(c3nc(C)c4c(n3)CCCC4=O)CC2)cc1` as the compound, how does the IC50 [5] read?
**A.** The IC50 was 0.61 µM.

**Q.** For `O=C(Cn1ccnc1[N+](=O)[O-])NCc1ccccc1` [BENZNIDAZOLE], which IC50 [6] is on record?
**A.** The IC50 was 8.5 µM.

**Q.** With `CO[C@H]1O[C@H](CS(=O)(=O)CCC#N)[C@@H](O)[C@H](O)[C@H]1O` as the compound, how does the Ratio Ki [1] read?
**A.** The Ratio Ki was over 2.9.

**Q.** And the Ki [2]?
**A.** Its Ki is 68.8 µM.

**Q.** With `CCN1CCC[C@@H]1CNC(=O)c1ccc2c(c1)NC(=O)/C(=C/c1ccccc1F)S2` as the compound, how does the IC50 (Plasmodium falciparum) read?
**A.** Its IC50 is 2.3 µM.

**Q.** Which IC50 [8] does the source give for `O=C1Nc2ccc(Br)cc2/C1=C1/SC(=S)N(C(Cc2ccccc2)C(=O)O)C1=O` (stereo unspecified) here?
**A.** Its IC50 is 3.1 µM.

**Q.** With `CCCCCCCn1cnc2sc(C(N)=O)c(C)c2c1=O` as the compound, how does the IC50 [5] read?
**A.** Its IC50 is 4.9 µM.

**Q.** With `CC(C)(C)c1ccc(Oc2ccc(N)cn2)cc1` [LIMANTRAFIN] as the compound, how does the IC50 [3] read?
**A.** The IC50 was 1.5 µM.

**Q.** What about the IC50 (Plasmodium falciparum) of the same compound?
**A.** Its IC50 is 0.97 µM.

**Q.** With `O=S(=O)(Nc1ccc(O)c2ccccc12)c1ccc(F)cc1` as the compound, how does the IC50 [3] read?
**A.** The IC50 was 30 µM.

**Q.** What about the IC50 (Plasmodium falciparum) of the same compound?
**A.** Its IC50 is 3.9 µM.

**Q.** For `COc1ccc(-n2c(-c3cccnc3)nc3ccccc3c2=O)cc1`, which IC50 [8] is on record?
**A.** The IC50 was 3 µM.

**Q.** What about the IC50 [10] of the same compound?
**A.** Its IC50 is 3 µM.

**Q.** What about the IC50 [3] of the same compound?
**A.** The IC50 was 7.6 µM.

**Q.** With `CO[C@H]1O[C@H](CSCCN)[C@@H](O)[C@H](O)[C@H]1O` as the compound, how does the Ratio Ki [1] read?
**A.** The Ratio Ki was 26.

**Q.** Which LC50 (Trypanosoma cruzi) does the source give for `C[C@]12CC[C@H](O)C[C@@H]1CC[C@@H]1[C@@H]2CC[C@]2(C)C(=O)[C@H](Br)C[C@@H]12` [16.ALPHA.-BROMOEPIANDROSTERONE] here?
**A.** Its LC50 is 12 µM.

**Q.** And the IC50 [6]?
**A.** Its IC50 is 0.086 µM.

**Q.** What does the source list for `CCN1CCC[C@@H]1CNC(=O)c1ccc2c(c1)NC(=O)c1cccc(C)c1S2`?
**A.** IC50 [11]: 15.3 µM; IC50 [12]: 0.19 µM

**Q.** For `COc1ccc(-c2ccc(C=C3C(=O)NC(=O)NC3=O)o2)c([N+](=O)[O-])c1`, which IC50 [3] is on record?
**A.** Its IC50 is 4.6 µM.

**Q.** What does the source list for `CO[C@H]1O[C@H](CSCCCN)[C@@H](O)[C@H](O)[C@H]1O`?
**A.** Ratio Ki [1]: 0.4; Ki [2]: 289 µM

**Q.** For `Cc1cccc(Nc2ncc3c(n2)CCCC3=O)c1`, which IC50 [6] is on record?
**A.** Its IC50 is 0.63 µM.

**Q.** What does the source list for `CO[C@H]1O[C@H](CS(=O)(=O)CCN)[C@@H](O)[C@H](O)[C@H]1O`?
**A.** Ratio Ki [1]: > 18; Ki [2]: 22.8 µM; Ki [4]: > 400 µM

**Q.** With `COc1cc(/C=C2\C(=O)N(c3nc(-c4ccc(Cl)cc4)cs3)N=C2C)cc(OC)c1OC` as the compound, how does the IC50 [8] read?
**A.** Its IC50 is 0.6 µM.

**Q.** What about the IC50 [12] of the same compound?
**A.** Its IC50 is 1.7 µM.

**Q.** For `O=c1c2ccccc2nc(-c2cccnc2)n1-c1ccc(Br)cn1`, which IC50 [8] is on record?
**A.** The IC50 was 2.6 µM.

**Q.** And the IC50 [10]?
**A.** The IC50 was 2.6 µM.

**Q.** And the IC50 [3]?
**A.** Its IC50 is 4.5 µM.

**Q.** Which IC50 [3] does the source give for `Cc1cccc(N2C(=O)NC(=O)/C(=C/c3ccc(-c4ccc([N+](=O)[O-])cc4C)o3)C2=O)c1` here?
**A.** The IC50 was 5.1 µM.

Reference: ChEMBL document CHEMBL5120775, “Boosting the Discovery of Small Molecule Inhibitors of Glucose-6-Phosphate Dehydrogenase for the Treatment of Cancer, Infectious Diseases, and Inflammation” (J Med Chem, 2022)
